Results published in patent publication US8629148B2, “Substituted oxindole-derivatives and the use thereof for the treatment of vasopressin-dependent illnesses” (AbbVie Deutschland GmbH & Co. KG, priority 2007, dated 2014).

What was measured:
[1] = biological target: human vasopressin V1a receptor (Homo sapiens, UniProt P37288); test: Vasopressin V1a receptor binding assay (125I-AVP displacement, CHO-K1 membranes); settings: selectivity quotient, human V1a vs human V1b
[2] = biological target: T1, recombinant human oxytocin receptors (Homo sapiens, UniProt P30559); test: Oxytocin receptor binding assay (3H-oxytocin, HEK-293 cells); settings: selectivity quotient, human OT vs human V1b
T1 construct: expressed in transfected cells; host or cells: HEK-293, transient expression; lysed and homogenized cells
T1 sequence (P30559 1-389): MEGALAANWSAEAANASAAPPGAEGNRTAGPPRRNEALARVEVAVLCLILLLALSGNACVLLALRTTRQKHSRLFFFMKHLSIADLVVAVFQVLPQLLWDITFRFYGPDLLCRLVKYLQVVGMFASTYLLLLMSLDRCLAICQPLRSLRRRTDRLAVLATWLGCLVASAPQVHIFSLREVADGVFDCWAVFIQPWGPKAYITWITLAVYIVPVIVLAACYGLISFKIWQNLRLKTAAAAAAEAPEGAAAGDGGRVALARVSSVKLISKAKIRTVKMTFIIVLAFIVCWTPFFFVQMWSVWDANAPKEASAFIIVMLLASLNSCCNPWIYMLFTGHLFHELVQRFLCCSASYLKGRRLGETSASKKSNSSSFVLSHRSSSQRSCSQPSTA
Procedure: The residue was taken up in ice-cold lysis buffer (50 mM Tris-HCl, 10% glycerol, pH 7.4 and Roche complete protease inhibitor) and subjected to an osmotic shock at 4° C. for 20 minutes. The lyzed cells were then centrifuged at 750×g at 4° C. for 20 minutes, the residue was taken up in incubation buffer, and aliquots of 10^7 cells/ml were prepared. The aliquots were frozen at −80° C. until used.
On the day of the experiment, the cells were thawed, diluted with incubation buffer and homogenized using a Multipette Combitip (Eppendorf, Hamburg). […] Triplicate determinations were set up. Bound and free radioligand were separated by filtration under vacuum with Whatman GF/B glass fiber filters with the aid of a Skatron cell harvester 7000. The bound radioactivity was determined by liquid scintillation measurement in a Tricarb Beta counter, model 2000 or 2200CA (Packard).

[3] = biological target: T2, human vasopressin V1b receptor (Homo sapiens, UniProt P47901); test: Vasopressin V1b receptor binding assay (3H-AVP displacement, CHO-K1 membranes)
T2 construct: expressed in transfected cells; host or cells: CHO-K1 (cell line hV1b_3H2_CHO), membranes
T2 sequence (P47901 1-424): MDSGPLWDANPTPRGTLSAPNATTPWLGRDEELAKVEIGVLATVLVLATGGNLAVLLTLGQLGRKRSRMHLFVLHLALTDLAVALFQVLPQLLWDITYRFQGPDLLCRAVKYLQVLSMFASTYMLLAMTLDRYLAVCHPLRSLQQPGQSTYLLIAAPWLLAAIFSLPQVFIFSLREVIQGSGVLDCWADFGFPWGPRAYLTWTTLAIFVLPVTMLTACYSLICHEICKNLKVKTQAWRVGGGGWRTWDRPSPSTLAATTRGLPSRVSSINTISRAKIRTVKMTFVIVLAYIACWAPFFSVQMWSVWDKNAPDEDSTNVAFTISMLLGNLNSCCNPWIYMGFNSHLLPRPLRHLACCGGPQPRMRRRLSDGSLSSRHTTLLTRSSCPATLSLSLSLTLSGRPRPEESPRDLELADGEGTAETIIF
Procedure: 1. Vasopressin V1b Receptor Binding Assay:
The substance concentration was further diluted 1:5 in the assay mixture (2% DMSO in the mixture).
All determinations were carried out as triplicate determinations.

Chain of human vasopressin V1a receptor (P37288 whole entry): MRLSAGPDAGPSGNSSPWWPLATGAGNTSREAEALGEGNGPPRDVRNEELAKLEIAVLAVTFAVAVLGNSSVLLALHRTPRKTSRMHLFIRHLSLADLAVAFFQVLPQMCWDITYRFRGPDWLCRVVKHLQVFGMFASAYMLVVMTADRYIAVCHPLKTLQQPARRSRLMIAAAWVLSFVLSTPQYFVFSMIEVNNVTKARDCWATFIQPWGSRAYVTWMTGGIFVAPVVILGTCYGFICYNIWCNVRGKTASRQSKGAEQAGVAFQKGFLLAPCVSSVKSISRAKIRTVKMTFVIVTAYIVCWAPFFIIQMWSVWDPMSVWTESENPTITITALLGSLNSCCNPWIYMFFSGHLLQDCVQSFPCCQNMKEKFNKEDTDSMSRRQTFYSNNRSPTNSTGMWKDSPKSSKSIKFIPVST

| Structure (SMILES) | Ki(h-V1a)/Ki(h-V1b)* [1] | Ki(h-OT)/Ki(h-V1b)* [2] | Ki [3] [nM] |
| --- | --- | --- | --- |
| CCN1CCN(c2ccc(NC3(c4cccnc4OCC(F)F)C(=O)N(S(=O)(=O)c4ccc(OC)cc4)c4ccc(C#N)cc43)cc2)CC1 (stereo not drawn) [Example 79, 3-[4-(4-Ethylpiperazin-1-yl)phenylamino]-1-(4-methoxyphenylsulfonyl)-3-(2-(2,2-difluoroethoxy)pyridin-3-yl)-2-oxo-2,3-dihydro-1H-indole-5-carbonitrile] | ++ (25-75) | +++ (>75) | 10 to 100 |
| CCOc1ncccc1C1(NCc2ccc(N3CCN(C)CC3)cc2)C(=O)N(S(=O)(=O)c2ccc(OC)cc2OC)c2ccc(C#N)cc21 (stereo not drawn) [Example 17, 1-(2,4-Dimethoxyphenylsulfonyl)-3-(2-ethoxypyridin-3-yl)-3-[4-(4-methylpiperazin-1-yl)-benzylamino]-2-oxo-2,3-dihydro-1H-indole-5-carbonitrile] | + (10-<25) | + (10-<25) | 1 to 10 |
| CCOc1ncccc1C1(Nc2ccc(CN3CCN(C)CC3)cc2)C(=O)N(S(=O)(=O)c2ccc(OC)cc2)c2ccc(C#N)cc21 (stereo not drawn) [Example 75, 3-(2-Ethoxypyridin-3-yl)-1-(4-methoxyphenylsulfonyl)-3-[4-(4-methylpiperazin-1-ylmethyl)-phenylamino]-2-oxo-2,3-dihydro-1H-indole-5-carbonitrile] | ++ (25-75) | +++ (>75) | 10 to 100 |
| CCOc1ncccc1C1(NC(=O)c2ccc(N3CCN(CC)CC3)cc2)C(=O)N(S(=O)(=O)c2ccc(OC)cc2)c2ccc(C#N)cc21 (stereo not drawn) [Example 5, N-[5-Cyano-3-(2-ethoxypyridin-3-yl)-1-(4-methoxyphenylsulfonyl)-2-oxo-2,3-dihydro-1H-indol-3-yl]-4-(4-ethylpiperazin-1-yl)benzamide] | +++ (>75) | +++ (>75) | 1 to 10 |
| CCOc1ncccc1C1(Nc2ccc(C(=O)N3CCN(C)CC3)cc2)C(=O)N(S(=O)(=O)c2ccc(OC)cc2)c2ccc(I)cc21 (stereo not drawn) [Example 70, 3-(2-Ethoxypyridin-3-yl)-5-iodo-1-(4-methoxyphenylsulfonyl)-3-[4-(4-methylpiperazin-1-carbonyl)phenylamino]-1,3-dihydroindol-2-one] | ++ (25-75) | + (10-<25) | 1 to 10 |

Next, values leading:

| Ki(h-V1a)/Ki(h-V1b)* [1] | Ki(h-OT)/Ki(h-V1b)* [2] | Ki [3] [nM] | Structure (SMILES) |
| --- | --- | --- | --- |
| +++ (>75) | ++ (25-75) | 1 to 10 | CCOc1ncccc1C1(OC(=O)c2ccc(N3CCN(C)CC3)cc2)C(=O)N(S(=O)(=O)c2ccc(OC)cc2)c2ccc(C#N)cc21 (stereo not drawn) [Example 2, 5-Cyano-3-(2-ethoxypyridin-3-yl)-1-(4-methoxyphenylsulfonyl)-2-oxo-2,3-dihydro-1H-indol-3-yl-4-(4-methylpiperazin-1-yl)benzoate] |
| + (10-<25) | +++ (>75) | 1 to 10 | CCOc1ncccc1C1(NCc2ccc(N3CCN(CC)CC3)cc2)C(=O)N(S(=O)(=O)c2ccc(OC)cc2)c2cc(F)c(C#N)cc21 (stereo not drawn) [Example 35, 3-(2-Ethoxypyridin-3-yl)-3-[4-(4-ethylpiperazin-1-yl)benzylamino]-6-fluoro-1-(4-methoxyphenylsulfonyl)-2-oxo-2,3-dihydro-1H-indole-5-carbonitrile] |
| +++ (>75) | ++ (25-75) | 1 to 10 | CCOc1ncccc1C1(NC(=O)c2ccc(N3CCN(C)CC3)cc2)C(=O)N(S(=O)(=O)c2ccc(OC)cc2)c2ccc(C#N)cc21 (stereo not drawn) [Example 4, N-[5-Cyano-3-(2-ethoxypyridin-3-yl)-1-(4-methoxyphenylsulfonyl)-2-oxo-2,3-dihydro-1H-indol-3-yl]-4-(4-methylpiperazin-1-yl)benzamide] |
| +++ (>75) | +++ (>75) | 1 to 10 | CCOc1ncccc1C1(Nc2ccc(CN3CCN(C)CC3)cc2)C(=O)N(S(=O)(=O)c2ccc(OC)cc2OC)c2ccc(C#N)cc21 (stereo not drawn) [Example 74, 1-(2,4-Dimethoxyphenylsulfonyl)-3-(2-ethoxypyridin-3-yl)-3-[4-(4-methylpiperazin-1-ylmethyl)phenylamino]-2-oxo-2,3-dihydro-1H-indole-5-carbonitrile] |
| ++ (25-75) | ++ (25-75) | 1 to 10 | CCOc1ncccc1C1(NCc2cccc(N3CCN(C)CC3)c2)C(=O)N(S(=O)(=O)c2ccccc2OC)c2ccc(I)cc21 (stereo not drawn) [Example 41, 3-(2-Ethoxypyridin-3-yl)-5-iodo-1-(2-methoxyphenylsulfonyl)-3-[3-(4-methylpiperazin-1-yl)-benzylamino]-1,3-dihydroindol-2-one] |
| ++ (25-75) | +++ (>75) | 1 to 10 | CCOc1ncccc1C1(Nc2ccc(N3CCN(C)CC3)cc2)C(=O)N(S(=O)(=O)c2ccc(OC)cc2)c2cc(F)c(C#N)cc21 (stereo not drawn) [Example 59, 3-(2-Ethoxypyridin-3-yl)-6-fluoro-1-(4-methoxyphenylsulfonyl)-3-[4-(4-methylpiperazin-1-yl)phenylamino]-2-oxo-2,3-dihydro-1H-indole-5-carbonitrile] |
| +++ (>75) | ++ (25-75) | 1 to 10 | CCOc1ncccc1C1(NC(=O)c2ccc(N3CCN(CC)CC3)cc2)C(=O)N(S(=O)(=O)c2ccc(OC)cc2OC)c2ccc(C#N)cc21 (stereo not drawn) [Example 7, N-[5-Cyano-1-(2,4-dimethoxyphenylsulfonyl)-3-(2-ethoxypyridin-3-yl)-2-oxo-2,3-dihydro-1H-indol-3-yl]-4-(4-ethylpiperazin-1-yl)benzamide] |
